According to patent publication US10285985B2, “Pharmaceutical composition for treatment or prevention of neurodegenerative diseases” (NATIONAL UNIVERSITY CORPORATION OKAYAMA UNIVERSITY, priority 2015, dated 2019):
Several values for one entry are separate records, joined by “and”; a condition that tells them apart may be missing. Equal entries are not always repeated. Where two headings read alike, the source gives them in different places. One block for each compound: values may come before it.

Legend:
[1] = Brain-migration ability: plasma and cerebral concentration by HPLC; format: in vivo, male ICR mice; conditions: for concentration at 1 h: mouse, one hour after 30 mg/kg single-dose administration, male ICR mice, ave ± SEM
Protocol: A compound was administered at a dose of 30 mg/kg mouse body weight. A compound to be administered was prepared by dissolving it in a 1% final concentration of ethanol and suspending the solution in a 0.5% carboxymethyl cellulose (CMC) solution. Animals subjected to administration were male ICR mice (6 week old), and they were fasted from 17 o'clock the day before.
The collected blood was put in a heparinized tube, mixed with inversion and then centrifuged (600 g) for 5 minutes to obtain plasma. To 100 μL of the plasma were added 100 μL of an ammonium acetate buffer solution and 1 mL of ethyl acetate, and the mixture was stirred by a vortex mixer for 30 seconds and then left at room temperature for 10 minutes. Then, the mixture was centrifuged 30 seconds and 800 μL of the supernatant was concentrated by a centrifugal evaporator. To the concentrate was added 100 μL of an HPLC eluent to prepare an HPLC sample.
Under ether anesthesia, the brain was removed from a mouse after administrating a drug, and about 100 mg of the brain was weighed into a 2 mL Eppendorf tube. After adding 1000 μL of methanol per 100 mg of the brain, the mixture was homogenized. After the homogenization, the homogenate was centrifuged at 10,000 g at 10 to 15° C. for 10 minutes. Then, in a separate 1.5 mL Eppendorf tube, 700 μL of the supernatant […] was dispensed and concentrated to dryness by a centrifugal evaporator. To the concentrate was added 70 μL of the HPLC eluent, to give a solution (10× concentrate).
A 30 μM solution of the drug in methanol was prepared and diluted with the HPLC eluent (5 mM AcONH4, pH5, MeOH) to 10, 3, 1 and 0.3 μM. Using these, a calibration curve was formed. The plasma and the […] samples were subjected to measurement and a measured value was converted to a concentration.

[2] = test system: senescence-accelerated mouse (SAMP8); experiment: Y-maze test in senescence-accelerated mouse (SAMP8); format: in vivo; conditions: SAMP8 mice, 0.015% in feed; FIG. 5A
Protocol: In this test, the mice used in the step-through test were used as they were.
After the step-through test, a Y-maze for a mouse (arm length: 40 cm) was used and mice were allowed to freely move for 8 minutes. In a Y-shaped system, a near-side arm, a left-back arm and a right-back arm are A, B, and C, respectively, and the number of entry into each arm was recorded (here, “entry” is defined that both hind paws of a mouse enter an arm, and entry of forepaws only is defined as “not enter”). This is called as a Y-maze.

[3] = test system: senescence-accelerated mouse (SAMP8); experiment: Blood data and organ weight in senescence-accelerated mouse (SAMP8) after 9 weeks of drug feed; format: in vivo; conditions: drug feed for 9 weeks, FIG. 7B, C
Protocol: After MRI imaging, the mice used in the above test were subjected to blood collection and then dissected, and blood data and the weight of each organ were recorded. Autopsy was conducted for the mice fed with MF feed containing a drug for 9 weeks. The animals were not fasted the day before the autopsy.

[4] = test system: multiple sclerosis model mice (EAE mice); experiment: Multiple sclerosis model mice (EAE mice), clinical score; format: in vivo, C57BL6/J mice; conditions: 0.015 w/w % in feed, vs vehicle group, FIG. 8
[5] = test system: Parkinson's disease model rats; experiment: Apomorphine-induced rotation in Parkinson's disease model rats (6-OHDA); format: in vivo, SD rat; conditions: individual rats, Day 12, 0.015% w/w in feed, apomorphine 1 mg/kg i.p., 3 minutes
Protocol: A 8-week old male SD rat under isoflurane anesthesia was skin-incised on the head and then a connective tissue was dissected and removed. Then, the tissue was fixed on a brain stereotactic fixture, bregma and lambda coordinates were measured, a microinjection cannula was inserted at four points of administration coordinates AP (+1.3, +0.4, −0.4, −1.3 mm) and DV (−5.0 mm) at the depth of 5.0 mm from the brain surface, and 2 μL of a 3.5 mg/mL solution of 6-OHDA (6-hydroxydopamine) in a saline with 0.02% ascorbic acid as a solvent was infused at a rate of 1 μL/min. Similar surgical procedure was conducted for a sham group and saline with ascorbic acid alone was infused. Five minutes after infusion, the glass pipette was kept to be inserted for diffusing the solution. […] A rat with Parkinson's disease rotates to the left after apomorphine administration. An individual which rotated seven or more times in one minute after the initiation of the rotation was used as a Parkinson's disease model.
The rats were allowed to freely access to MF feed containing a 0.015% w/w RXR partial agonist. After 6 and 12 days, to the animal was intraperitoneally administered a 1 mg/mL solution of apomorphine in saline at 1 mg/kg, and the rotatory movement number for 3 minutes immediately after the administration was recorded.

[6] = mice, oral 30 mg/kg/day for one week; cited from earlier work

- concentration at 1 h ([1]; brain, read-out: Brain concentration): 11.4 ± 3.7 µM
- concentration at 1 h ([1]; plasma, read-out: Plasma concentration): 15.8 ± 6 µM
SMILES: Cc1cc2c(cc1-n1nnc3cc(C(=O)O)ccc31)C(C)(C)CCC2(C)C [CBt-PMN]
- migration to the brain compared with bexarotene ([1]; 30 mg/kg, mice, one hour): migrates more smoothly to the brain than bexarotene

- blood triglyceride ([3]; SAMP8 mice): increase
- enlargement of the liver ([3]; SAMP8 mice): observed
- blood triglyceride ([3]; SAMR1 mice): increase
- enlargement of the liver ([3]; SAMR1 mice): observed
SMILES: C=C(c1ccc(C(=O)O)cc1)c1cc2c(cc1C)C(C)(C)CCC2(C)C [bexarotene]
- effect on SAMP8 hyperactivity (number of entry in the Y-maze arm) [2]: no effects
- clinical score / amelioration of pathological model [4]: did not ameliorate

SMILES: CN1CCc2cccc3c2[C@H]1Cc1ccc(O)c(O)c1-3 [Apomorphine, apomorphine]
- rotatory movement number, Left [5]: 11 and 19 and 9 and 4 and 16
- rotatory movement number, Right [5]: 0

SMILES: CCN(c1ccc(OCC(C)C)c(C(C)C)c1)c1ccc(C(=O)O)cn1 [NEt-4IB]
- rotatory movement number, Left ([5]; listed as NEt-41B): 53 and 18 and 6 and 0 and 32
- rotatory movement number, Right ([5]; listed as NEt-41B): 0 (4×) and 75
- liver weight vs vehicle group [6]: not a difference
- tendency to weight gain (body weight change over a week) [6]: not observed
- triglyceride level vs vehicle group [6]: not a difference
